Patent US11945812B2, “Annulated 2-amino-3-cyano thiophenes and derivatives for the treatment of cancer” (Boehringer Ingelheim International GmbH, priority 2020, dated 2024)
Where two headings read alike, the source gives them in different places.

What was measured:
[1] = molecular target: T1, KRAS G12C::SOS1 protein-protein interaction (Homo sapiens, UniProt P01116, C118S/C51S/C80L/G12C); assay: KRAS::SOS1 AlphaScreen binding assay
T1 construct: His6 (N); host or cells: E. coli
Source text: KRAS::SOS1 AlphaScreen Binding Assay
Reagents: • GST-tagged SOS1 (564_1049_GST_TEV_ECO) produced in-house • GST-TEV-SOS1 (564-1049) is purchased from Viva Biotech Ltd. • The expression construct of KRAS G12C (amino acids 1-169 of reference sequence P01116-2 (uniprot), with additional mutations: C51S, C80L, and C118S) containing a C-terminal avi-tag was obtained by gene synthesis (GeneArt, Thermo Fisher) in donor vector (pDONR-221) and transferred by recombinant cloning into pDEST17 vector bearing an N-terminal His6-tag. The protein was expressed in E. coli and the purified protein was biotinylated with the E. coli biotin ligase (BirA) before usage. • GDP (Sigma Cat No G7127) • AlphaLISA Glutathione Acceptor Beads (PerkinElmer, Cat No AL109) • AlphaScreen Streptavidin Donor Beads (PerkinElmer Cat No 6760002) • Assay plates: Proxiplate-384 PLUS, white (PerkinElmer, Cat No 6008289)
Assay Buffer: • 1×PBS • 0.1% BSA • 0.05% Tween 20
7.5 nM (final assay concentration) KRAS G12C, 10 μM (final assay concentration) GDP and 5 nM (final assay concentration) GST-SOS1 are mixed in assay buffer prior to use and kept at room temperature.
AlphaLISA Glutathione Acceptor Beads and AlphaScreen Streptavidin Donor Beads are mixed in assay buffer at a concentration of 10 μg/mL (final assay concentration) each prior to use and kept at room temperature.
Compounds are diluted to a final start concentration of 100 μM and are tested in duplicate. Assay-ready plates (ARPs) are generated using an Access Labcyte Workstation with a Labcyte Echo 550 or 555 accoustic dispenser. For compound a start concentration of 100 μM, 150 nL of compound solution is transferred per well in 11 concentrations in duplicate with serial 1:5 dilutions.
The assay is run using a fully automated robotic system in a darkened room below 100 Lux. 10 μL of KRAS::SOS1 GDP mix is added into columns 1-24 to the 150 nL of compound solution (final dilution in the assay 1:100, final DMSO concentration 1%).
After 30 minutes incubation time 5 μL of bead mix is added into columns 1-23. Plates are kept at room temperature in a darkened incubator. After further 60 minutes incubation, the signal is measured using a PerkinElmer Envision HTS Multilabel Reader using the AlphaScreen specifications from PerkinElmer. Each plate contains the following controls: • diluted DMSO+KRAS::SOS1 GDP mix+bead mix • diluted DMSO+KRAS::SOS1 GDP mix
IC50 values are calculated and analyzed using a 4 parametric logistic model.
Tables of example compounds disclosed herein contain IC50 values determined using the above assay.

[2] = tested on: ERK phosphorylation in NCI-H358 (KRAS G12C mutation); assay: ERK phosphorylation assay 1 (AlphaLISA SureFire Ultra p-ERK1/2); format: cell-based; settings: Homo sapiens, assay 1 (not marked with *), read-out: IC50 H358 pERK
Source text: (§1) ERK Phosphorylation Assay
(§2) Materials Used for the Assay;

[3] = Plasma protein binding (equilibrium dialysis), mouse plasma; format: in vitro ADME; settings: read-out: PPB mouse fu
Protocol: (§3) Plasma Protein Binding (PPB)
(§4) Binding of test compound to plasma was determined using equilibrium dialysis (ED) and quantitative mass spectrometry interfaced with liquid chromatography (LC-MS). In brief, ED was performed with dialysis devices consisting of two chambers separated by a semipermeable membrane with a molecular weight cut-off of 5-10 kg/mol. One chamber was filled with commercially sourced plasma (mouse and human plasma, respectively) or serum (10% FCS in PBS) containing 1-10 μmol/L test compound and the other chamber was filled with phosphate-buffer saline (PBS) with or without dextran. The dialysis chamber was incubated for 3-5 hours at 37° C. After incubation, protein was precipitated from aliquots of each chamber and the concentration of test compound in the supernatant of the plasma-containing compartment (cplasma) and of the buffer-containing compartment (Cbuffer) was determined by LC-MS. The fraction of unbound test compound (not bound to plasma) (fu) was calculated according to the following equation: […]

SW837 cells = assay: SW837 CTG proliferation assay (CRC); format: cell-based; settings: Homo sapiens
Protocol: SW837 CTG Proliferation Assay (CRC)
SW837 cells (ATCC #CCL-235) were grown in cell culture flasks (175 cm^2) using L-15 10% FCS, 1% L-Glu, 1×NEAA and 1×Na-Pyrovat. Cultures were incubated at 37° C. and 0% CO2 in a humidified atmosphere, with medium change or subcultivation 2-3 times a week. Materials used for the assay were CulturPlate-384, White Opaque 384-well Microplate, Sterile and Tissue Culture Treated (Perkin Elmer #6007680), Leibovitz L15 Medium and FBS # SH30071.03 (HyClone).
(§5) The proliferation assays started (day1) with seeding cells in flat bottom 384 well microtiter plates in 90 μL L-15 10% FCS, 1% L-Glu, 1×NEAA and 1× Na-Pyrovat at a density of 500 cells/well. Any other luminescence compatible plate format is possible. On day 2, 10 μL dilutions of the test compounds covering a concentration range between app. 0, 1 and 10.000 nM were added to the cells. Cells were incubated for 5 days in a humidified, CO2 controlled (no CO2) incubator at 37° C. On day 7 100 μL of Cell Titer Glow reagent (Cell titer Glo Luminescent Cat. No. G7571, Promega) were added to each well and incubated for additional 10 min at room temperature (with agitation). Luminescence was measured on a Wallac Victor using standard luminescence read out. IC50 values were calculated using standard Levenburg Marquard algorithms (GraphPad Prism).

[4] = Plasma protein binding (equilibrium dialysis), human plasma; format: in vitro ADME; settings: read-out: PPB human fu
Protocol: as §3, §4

MiaPaCa-2 cells = assay: MiaPaCa-2 CTG proliferation assay (pancreatic cancer); format: cell-based; settings: Homo sapiens, MIA PaCa-2, 120 h, read-out: IC50 MiaPACA2
Protocol: MiaPaCa-2 CTG Proliferation Assay (Pancreatic Cancer)
MiaPaCa-2 cells (ATCC® CRM-CRL-1420™) were grown in cell culture flasks (175 cm^2) using DMEM medium supplemented with 10% fetal bovine serum. […] Materials used for the assay were CulturPlate-384, White Opaque 384-well microplate, Sterile and Tissue Culture Treated (Perkin Elmer #6007680), DMEM medium and FBS # SH30071.03 (HyClone).
as §5, with “μL DMEM medium supplemented with” for “μL L-15”, “10% FBS” for “10% FCS, 1% L-Glu, 1×NEAA and 1× Na-Pyrovat”, “humidified, incubator with 5%” for “humidified,”, “CO2” for “CO2 controlled (no CO2) incubator”, “100 μl” for “100 μL”

[5] = Plasma protein binding (equilibrium dialysis), serum 10% FCS in PBS; format: in vitro ADME; settings: bovine, 10% FCS in PBS (serum), read-out: PPB 10% FCS fu
Protocol: as §3, §4

[6] = molecular target: Ba/F3 cells bearing a KRAS G12C mutation (Homo sapiens, UniProt P01116, G12C, cells depend on it); assay: Ba/F3 cell model proliferation assay (AlamarBlue, 72 h); format: cell-based; settings: Ba/F3 KRAS G12C cells, 72 h, 10% FCS, uncorrected; read-out: IC50 Ba/F3 KRASG12C
Protocol: Ba/F3 Cell Model Generation and Proliferation Assay
Plasmids containing KRASG12 mutants were obtained from GeneScript. To generate KRASG12-dependent Ba/F3 models, Ba/F3 cells were transduced with retroviruses containing vectors that harbor KRASG12 isoforms. Platinum-E cells (Cell Biolabs) were used for retrovirus packaging. Retrovirus was added to Ba/F3 cells. To ensure infection, 4 μg/mL polybrene was added and cells were spinfected. […] Cells with an infection efficiency of 10% to 20% were further cultivated and puromycin selection with 1 μg/mL was initiated. As a control, parental Ba/F3 cells were used to show selection status. Selection was considered successful when parental Ba/F3 cells cultures died. To evaluate the transforming potential of KRASG12 mutations, the growth medium was no longer supplemented with IL-3. Ba/F3 cells harboring the empty vector were used as a control. Approximately ten days before conducting the experiments, puromycin was left out.
All treatments were performed in technical duplicates. The assay is run using a fully automated robotic system. Treated cells were incubated for 72 h at 37° C. with 5% CO2. AlamarBlue™ (ThermoFisher), a viability stain, was added and fluorescence measured in the PerkinElmer Envision HTS Multilabel Reader.

NCI-H358 cells = assay: NCI-H358 CTG proliferation assay (120 h) (NSCLC); format: cell-based; settings: Homo sapiens, read-out: IC50 NCl-H358
Protocol: NCI-H358 CTG Proliferation Assay (120 h) (NSCLC)
NCI-H358 cells (ATCC No. CRL-5807) were dispensed into white bottom opaque 96 well plates (Perkin Elmer cat no. 5680) at a density of 2000 cells per well in 100 μL RPMI-1640 ATCC-Formulation (Gibco # A10491)+10% FCS. Cells were incubated overnight at 37° C. in a humidified tissue culture incubator at 5% CO2. Compounds (10 mM stock in DMSO) were added at logarithmic dose series using the HP Digital Dispenser D300 (Tecan), normalizing for added DMSO. For the TO time point measurement, untreated cells were analyzed at the time of compound addition. Plates were incubated for 120 hours, and cell viability was measured using CellTiter-Glo luminescent cell viability reagent (Promega product code G7570). Viability (stated as percent of control) is defined as relative luminescence units RLU of each well divided by the RLU of cells in DMSO controls. IC50 values were determined from viability measurements by non-linear regression using a four parameter model.

[7] = tested on: ERK phosphorylation in NCI-H358_Cas9_SOS2; assay: ERK phosphorylation assay 2 (AlphaLISA SureFire Ultra p-ERK1/2), SOS2 knock-out; format: cell-based; settings: Homo sapiens, NCI-H358; assay 2 (marked with *); read-out: IC50 H358 pERK
Source text: as §1, §2

[8] = SW837 CTG proliferation, read-out: IC50 SW837
[9] = MiaPaCa-2 CTG proliferation, 5 days

T1 sequence (P01116 1-169 isoform P01116-2 G12C/C51S/C80L/C118S): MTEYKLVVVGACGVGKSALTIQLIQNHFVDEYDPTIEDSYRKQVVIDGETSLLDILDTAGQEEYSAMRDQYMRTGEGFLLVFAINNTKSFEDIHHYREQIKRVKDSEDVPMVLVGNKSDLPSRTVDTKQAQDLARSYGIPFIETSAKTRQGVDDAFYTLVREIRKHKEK
Ba/F3 cells bearing a KRAS G12C mutation, sequence (P01116 whole entry G12C): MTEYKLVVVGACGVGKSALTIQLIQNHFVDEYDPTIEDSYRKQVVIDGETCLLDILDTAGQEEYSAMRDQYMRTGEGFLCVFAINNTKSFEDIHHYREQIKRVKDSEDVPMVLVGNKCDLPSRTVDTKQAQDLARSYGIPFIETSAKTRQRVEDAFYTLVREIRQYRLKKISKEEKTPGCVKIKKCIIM

## C=CC(=O)N1CCN(c2cc(N3CCN(C)CC3)nc(-n3cc(C4(C)CCCc5sc(N)c(C#N)c54)cn3)c2)CC1 (stereo not shown) [Ie-1]
[1]; KRAS G12C 7.5 nM, GST-SOS1 5 nM, GDP 10 μM
  IC50: 280 nM
[2]
  IC50: 125 nM

## C=CC(=O)N1CCN(c2nc(=O)n(-c3c(C)ccnc3C(C)C)c3nc(-c4c(O)cccc4F)c(F)cc23)[C@@H](C)C1 [sotorasib, reference compound]
[3]
  fraction unbound: 0.094
SW837 cells; SW837, read-out: IC50 SW837
  IC50: 17 nM
[4]
  fraction unbound: 0.027
MiaPaCa-2 cells
  IC50: 49 nM
[5]
  fraction unbound: 0.774

## C=CC(=O)N1CCN(c2cc(O[C@@H](C)[C@@H]3CCCN3C)nc(-c3cc([C@@]4(C)CCCc5sc(N)c(C#N)c54)no3)n2)[C@H](C)C1 [Ic-2]
[1]; KRAS G12C::SOS1 AlphaScreen
  IC50: 2 nM
[6]
  GI50: 2.3 nM
SW837 cells; [8]
  IC50: 3.67 nM
NCI-H358 cells
  IC50: 4.75 nM
MiaPaCa-2 cells; [9]
  IC50: 9.01 nM
[7]
  IC50: 3.7 nM

## C=CC(=O)N1CCN(c2cc(O[C@@H](C)[C@@H]3CCCN3C)nc(-c3cc(C4(C)CCCc5sc(N)c(C#N)c54)no3)n2)CC1 (stereo partly shown) [Ic-1]
[1]; KRAS G12C::SOS1 AlphaScreen
  IC50: 3 nM
[6]
  GI50: 1.5 nM
SW837 cells; [8]
  IC50: 1.3 nM
NCI-H358 cells
  IC50: 3.13 nM
MiaPaCa-2 cells; [9]
  IC50: 23.8 nM
[7]
  IC50: 1.6 nM
